We go through 17 molecules from patent publication US20260138976A1 (Hoffmann-La Roche Inc., priority 2022, published 2026).

Assay [1] concerns primary human T-cells. Put plainly: Proliferation assay (5 days, CellTiter-Glo, CD3-stimulated T-cells). The class given is cell-based. The settings on record: for Emax proliferation (% activation): CD3 condition, normalised to DMSO (neutral) and 20 μM reference compound A1 = 100%; for pEC50: Homo sapiens, T-cell, 120 h, CD3-stimulated primary human T-cells, 5 days, CellTiter-Glo, fitted sigmoidal curve, read-out: Tcell Proliferation CD3 EC50. The method, boiled down: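 Expanded primary human T-cells, 100 k cells/well, were stimulated with plate-coated CD3 antibody (donor-titrated) and given compound in a 5 or 6 pt dose response from 20 μM or 10 μM final top, 0.2% DMSO final. ATP was read by CellTiter-Glo after 5 days. EC50 and Emax were reported as % of 20 μM reference compound A1.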

Assay [2] relates to primary human T-cells. As to the kind of experiment: IL2 secretion measurements (24 h, CD3-stimulated T-cells, PBS counter screen). The class given is cell-based. The note with it: for Emax IL2 (% activation): CD3 condition, normalised to DMSO (neutral) and 20 μM reference compound A1 = 100%; for pEC50: Homo sapiens, T-cell, CD3-stimulated primary human T-cells, IL2 secretion, fitted sigmoidal curve, read-out: Tcell IL2 CD3 EC50. The method, boiled down: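 Expanded primary human T-cells (100k/well) were plated on anti-CD3-coated or PBS-only plates with compound in a 5–6 point dose response (top 20 or 10 μM final, 3.333-fold, 0.2% DMSO). IL-2 in 24 h supernatants was quantified by ProQuantum immunoassay or ELISA. Values were normalized to DMSO and 20 μM reference compound A1 (100%), giving EC50 and Emax.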
Background: A counterscreen serves to expose hits that act by an unwanted route or on another target.

Structures are written as SMILES. pEC50: −log10 of the molar value.

Turning to `CC(C)(C#N)c1nnc(-c2ccc3c(c2)N(Cc2ccc(-c4noc(C5CCC(F)(F)CC5)n4)cc2)C(=O)[C@@H](N)CS3(=O)=O)o1` [Example 101, 2-[5-[(3R)-3-amino-5-[[4-[5-(4,4-difluorocyclohexyl)-1,2,4-oxadiazol-3-yl]phenyl]methyl]-1,1,4-trioxo-2,3-dihydro-1λ^6,5-benzothiazepin-7-yl]-1,3,4-oxadiazol-2-yl]-2-methyl-propanenitrile], in the assay with primary human T-cells [1], the “Emax proliferation (% activation)” value was determined as 175 % activation and the pEC50 was 6.26. In the assay on primary human T-cells [2], the “Emax IL2 (% activation)” value is recorded as 429 % activation and the pEC50 was 5.44.

As to `CC(C)(C#N)c1nnc(-c2ccc3c(c2)N(Cc2ccc(-n4cc(C(F)(F)F)cn4)cc2)C(=O)[C@@H](N)CS3(=O)=O)o1` [Example 102, 2-[5-[(3R)-3-amino-1,1,4-trioxo-5-[[4-[4-(trifluoromethyl)pyrazol-1-yl]phenyl]methyl]-2,3-dihydro-1λ^6,5-benzothiazepin-7-yl]-1,3,4-oxadiazol-2-yl]-2-methyl-propanenitrile], in the assay with primary human T-cells [1], the “Emax proliferation (% activation)” value was determined as 127 % activation and the pEC50 is 6.44. In addition, in the assay with primary human T-cells [2], the “Emax IL2 (% activation)” value was 143 % activation and the pEC50 was 6.20.

In the case of `CC(C)(C#N)c1nnc(-c2ccc3c(c2)N(Cc2ccc(-c4ncc(C(F)(F)F)o4)cc2)C(=O)[C@@H](N)CS3(=O)=O)o1` [Example 105, 2-[5-[(3R)-3-amino-1,1,4-trioxo-5-[[4-[5-(trifluoromethyl)oxazol-2-yl]phenyl]methyl]-2,3-dihydro-1λ^6,5-benzothiazepin-7-yl]-1,3,4-oxadiazol-2-yl]-2-methyl-propanenitrile], in the assay with primary human T-cells [1], the “Emax proliferation (% activation)” value is listed as 138 % activation and the pEC50 was 6.41. In the assay on primary human T-cells [2], the “Emax IL2 (% activation)” value is given as 146 % activation and the pEC50 was 6.00.

For `CC(C)(C#N)c1nnc(-c2ccc3c(c2)N(Cc2ccc(-c4ccc(C(F)(F)F)cc4)nc2)C(=O)[C@@H](N)CS3(=O)=O)o1` [Example 106], in the assay on primary human T-cells [1], the “Emax proliferation (% activation)” value worked out at 79 % activation and the pEC50 was 5.42. Further, in the assay on primary human T-cells [2], the “Emax IL2 (% activation)” value amounted to 121 % activation and the pEC50 is 5.42.

Take `Cn1nc(C(F)(F)F)cc1-c1ccc(CN2C(=O)[C@@H](N)CS(=O)(=O)c3ccc(-c4nnc(C(C)(C)C#N)o4)cc32)cc1` [Example 107, 2-[5-[(3R)-3-amino-5-[[4-[2-methyl-5-(trifluoromethyl)pyrazol-3-yl]phenyl]methyl]-1,1,4-trioxo-2,3-dihydro-1λ^6,5-benzothiazepin-7-yl]-1,3,4-oxadiazol-2-yl]-2-methyl-propanenitrile]: in the assay with primary human T-cells [1], the “Emax proliferation (% activation)” value came to 165 % activation and the pEC50 was 5.66. In the assay with primary human T-cells [2], the “Emax IL2 (% activation)” value is reported as 241 % activation and the pEC50 was 5.86.

Consider `CC(C)(C#N)c1nnc(-c2ccc3c(c2)N(Cc2ccc(-c4ccc(OC(F)F)cn4)cc2)C(=O)[C@@H](N)CS3(=O)=O)o1` [Example 108, 2-[5-[(3R)-3-amino-5-[[4-[5-(difluoromethoxy)-2-pyridyl]phenyl]methyl]-1,1,4-trioxo-2,3-dihydro-1λ^6,5-benzothiazepin-7-yl]-1,3,4-oxadiazol-2-yl]-2-methyl-propanenitrile], for which, in the assay with primary human T-cells [1], the “Emax proliferation (% activation)” value amounted to 204 % activation and the pEC50 was 6.09. Further, in the assay on primary human T-cells [2], the “Emax IL2 (% activation)” value was 245 % activation and the pEC50 was 5.81.

With `CC(F)(F)c1ccc(-c2ccc(CN3C(=O)[C@@H](N)CS(=O)(=O)c4ccc(-c5nnc(C(C)(C)C#N)o5)cc43)cc2)nc1` [Example 109, 2-[5-[(3R)-3-amino-5-[[4-[5-(1,1-difluoroethyl)-2-pyridyl]phenyl]methyl]-1,1,4-trioxo-2,3-dihydro-1λ^6,5-benzothiazepin-7-yl]-1,3,4-oxadiazol-2-yl]-2-methyl-propanenitrile], in the assay on primary human T-cells [1], the “Emax proliferation (% activation)” value was 129 % activation and the pEC50 is 6.35. Moreover, in the assay with primary human T-cells [2], the “Emax IL2 (% activation)” value worked out at 360 % activation and the pEC50 is 5.47.

As for `CC(C)(C#N)c1nnc(-c2ccc3c(c2)N(Cc2ccc(-c4cc(OC(F)F)ccn4)cc2)C(=O)[C@@H](N)CS3(=O)=O)o1` [Example 110, 2-[5-[(3R)-3-amino-5-[[4-[4-(difluoromethoxy)-2-pyridyl]phenyl]methyl]-1,1,4-trioxo-2,3-dihydro-1λ^6,5-benzothiazepin-7-yl]-1,3,4-oxadiazol-2-yl]-2-methyl-propanenitrile], in the assay with primary human T-cells [1], the “Emax proliferation (% activation)” value is on record as 85 % activation and the pEC50 is 5.24. In addition, in the assay on primary human T-cells [2], the “Emax IL2 (% activation)” value was determined as 85 % activation and the pEC50 was 5.39.

`CC(C)(C#N)c1nnc(-c2ccc3c(c2)N(Cc2ccc(-c4ccnc(C(F)(F)F)c4)cc2)C(=O)[C@@H](N)CS3(=O)=O)o1` [Example 111, 2-[5-[(3R)-3-amino-1,1,4-trioxo-5-[[4-[2-(trifluoromethyl)-4-pyridyl]phenyl]methyl]-2,3-dihydro-1λ^6,5-benzothiazepin-7-yl]-1,3,4-oxadiazol-2-yl]-2-methyl-propanenitrile]: in the assay with primary human T-cells [1], the “Emax proliferation (% activation)” value is given as 117 % activation and the pEC50 is 6.03. Moreover, in the assay on primary human T-cells [2], the “Emax IL2 (% activation)” value is 151 % activation and the pEC50 was 5.73.

Regarding `CC(C)(C#N)c1nnc(-c2ccc3c(c2)N(Cc2ccc(-c4cnc(OC(F)(F)F)cn4)cc2)C(=O)[C@@H](N)CS3(=O)=O)o1` [Example 112], in the assay on primary human T-cells [1], the “Emax proliferation (% activation)” value is 116 % activation and the pEC50 is 6.54. Besides, in the assay with primary human T-cells [2], the “Emax IL2 (% activation)” value stood at 139 % activation and the pEC50 is 6.08.

With `CC(C)(C#N)c1nnc(-c2ccc3c(c2)N(Cc2ccc(-c4ccc(C(F)(F)F)nc4)cc2)C(=O)[C@@H](N)CS3(=O)=O)o1` [Example 113, 2-[5-[(3R)-3-amino-1,1,4-trioxo-5-[[4-[6-(trifluoromethyl)-3-pyridyl]phenyl]methyl]-2,3-dihydro-1λ^6,5-benzothiazepin-7-yl]-1,3,4-oxadiazol-2-yl]-2-methyl-propanenitrile], in the assay on primary human T-cells [1], the “Emax proliferation (% activation)” value stood at 79 % activation and the pEC50 is 5.98. Further, in the assay with primary human T-cells [2], the “Emax IL2 (% activation)” value came out at 85 % activation and the pEC50 was 5.88.

Consider `Cc1nc(-c2ccc(CN3C(=O)[C@@H](N)CS(=O)(=O)c4ccc(-c5nnc(C(C)(C)C#N)o5)cc43)cc2)ccc1C(F)(F)F` [Example 114], for which, in the assay with primary human T-cells [1], the “Emax proliferation (% activation)” value is 78 % activation and the pEC50 was 5.13. Further, in the assay with primary human T-cells [2], the “Emax IL2 (% activation)” value was 48 % activation and the pEC50 was 5.98.

For `CC(C)(C#N)c1nnc(-c2ccc3c(c2)N(Cc2ccc(-c4cnn(C(F)(F)F)c4)cc2)C(=O)[C@@H](N)CS3(=O)=O)o1` [Example 115, 2-[5-[(3R)-3-amino-1,1,4-trioxo-5-[[4-[1-(trifluoromethyl)pyrazol-4-yl]phenyl]methyl]-2,3-dihydro-1λ^6,5-benzothiazepin-7-yl]-1,3,4-oxadiazol-2-yl]-2-methyl-propanenitrile], in the assay with primary human T-cells [1], the “Emax proliferation (% activation)” value is 140 % activation and the pEC50 is 6.56. In the assay with primary human T-cells [2], the “Emax IL2 (% activation)” value turned out to be 112 % activation and the pEC50 was 6.30.

In the case of `CC(C)(C#N)c1nnc(-c2ccc3c(c2)N(Cc2ccc(-c4cc(C(F)(F)F)ccn4)cc2)C(=O)[C@@H](N)CS3(=O)=O)o1` [Example 116, 2-[5-[(3R)-3-amino-1,1,4-trioxo-5-[[4-[4-(trifluoromethyl)-2-pyridyl]phenyl]methyl]-2,3-dihydro-1λ^6,5-benzothiazepin-7-yl]-1,3,4-oxadiazol-2-yl]-2-methyl-propanenitrile], in the assay on primary human T-cells [1], the “Emax proliferation (% activation)” value turned out to be 97 % activation and the pEC50 was 6.36. In addition, in the assay with primary human T-cells [2], the “Emax IL2 (% activation)” value is 87 % activation and the pEC50 was 5.99.

For the molecule `CC(C)(C#N)c1nnc(-c2ccc3c(c2)N(Cc2ccc(-c4ncc(OC(F)(F)F)cn4)cc2)C(=O)[C@@H](N)CS3(=O)=O)o1` [Example 117], in the assay on primary human T-cells [1], the “Emax proliferation (% activation)” value worked out at 136 % activation and the pEC50 was 6.76. In the assay on primary human T-cells [2], the “Emax IL2 (% activation)” value was 114 % activation and the pEC50 is 6.23.

With `CC(C)(C#N)c1nnc(-c2ccc3c(c2)N(Cc2ccc(-c4ccc(C5CC5)cn4)cc2)C(=O)[C@@H](N)CS3(=O)=O)o1` [Example 118, 2-[5-[(3R)-3-amino-5-[[4-(5-cyclopropyl-2-pyridyl)phenyl]methyl]-1,1,4-trioxo-2,3-dihydro-1λ^6,5-benzothiazepin-7-yl]-1,3,4-oxadiazol-2-yl]-2-methyl-propanenitrile], in the assay on primary human T-cells [1], the “Emax proliferation (% activation)” value is 144 % activation and the pEC50 is 5.80. Moreover, in the assay with primary human T-cells [2], the “Emax IL2 (% activation)” value is recorded as 172 % activation and the pEC50 was 5.39.

For the molecule `CC(C)(C#N)c1nnc(-c2ccc3c(c2)N(Cc2ccc(-c4ccc(OC(F)(F)F)cc4)nc2)C(=O)[C@@H](N)CS3(=O)=O)o1` [Example 119, 2-[5-[(3R)-3-amino-1,1,4-trioxo-5-[[6-[4-(trifluoromethoxy)phenyl]-3-pyridyl]methyl]-2,3-dihydro-1λ^6,5-benzothiazepin-7-yl]-1,3,4-oxadiazol-2-yl]-2-methyl-propanenitrile], in the assay with primary human T-cells [1], the “Emax proliferation (% activation)” value is on record as 119 % activation and the pEC50 is 6.09. Besides, in the assay on primary human T-cells [2], the “Emax IL2 (% activation)” value amounted to 102 % activation and the pEC50 was 5.89.
